In publication PMC4346271 (Bioorganic & Medicinal Chemistry, 2015):

Tests used:
[1] = biological target: hCB2R (Homo sapiens, UniProt P34972); test: hCB2R cAMP assay; type: cell-based; conditions: for agonist activity at the CB2R (in words): CHO cell cAMP assay
[2] = system: panel of kinases; test: Kinase off-target screen, whole panel; type: binding; conditions: 10 μM; 97 kinases (Table S4)
[3] = system: panel of GPCRs; test: GPCR off-target screen, whole panel; type: binding; conditions: 1 μM; selection of 24 GPCRs (Table S3)
[4] = Mouse liver microsome; type: in vitro ADME; conditions: mouse liver microsomes, 37 °C, with NADPH
[5] = Solubility observations; type: physicochemical; conditions: in the vehicle (DMSO) or under the assay conditions

Sequence of hCB2R (P34972 whole entry): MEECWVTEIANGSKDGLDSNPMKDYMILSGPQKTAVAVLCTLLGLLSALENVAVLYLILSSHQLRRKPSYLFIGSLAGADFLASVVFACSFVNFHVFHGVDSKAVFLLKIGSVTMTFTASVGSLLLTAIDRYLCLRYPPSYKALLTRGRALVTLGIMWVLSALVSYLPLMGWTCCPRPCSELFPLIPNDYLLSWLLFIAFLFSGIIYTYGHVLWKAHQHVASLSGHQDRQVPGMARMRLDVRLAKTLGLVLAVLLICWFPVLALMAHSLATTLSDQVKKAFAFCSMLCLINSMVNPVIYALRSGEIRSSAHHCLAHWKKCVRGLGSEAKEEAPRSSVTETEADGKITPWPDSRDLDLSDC

## N#Cc1ccccc1CSc1nnc2c(n1)[nH]c1ccccc12 [Compound 7, 3-((2′-Cyanobenzyl)thio)-5H-[1,2,4]triazino[5,6-b]indole]
[1]
  EC50: 120 nM
[2]
  binding with any of the kinases tested: no significant binding
[3]
  binding at any of the GPCRs tested: no significant binding

## Sc1nnc2c(n1)[nH]c1ccccc12 [Compound 9, 5H-[1,2,4]Triazino[5,6-b]indole-3-thiol]
[1]
  agonist activity at the CB2R (in words): no detectable agonist activity

## Fc1ccccc1CSc1nnc2c(n1)[nH]c1ccccc12 [Compound 14, 3-((2′-Fluorobenzyl)thio)-5H-[1,2,4]triazino[5,6-b]indole]
[1]
  agonist activity at the CB2R (in words): no activity up to the highest concentrations tested

## CC(=O)n1c2ccccc2c2nnc(SCc3ccccc3C#N)nc21 [Compound 66, 2′(((5-Acetyl-5H-[1,2,4]triazino[5,6-b]indol-3-yl)thio)methyl)benzonitrile]
[1]
  agonist activity at the CB2R (in words): no detectable activity

## N#Cc1ccccc1CSc1nnc2c3ccccc3n(C(=O)c3ccccc3)c2n1 [Compound 72]
[4]
  MLM stability t1/2: no parent compound could be detected at the earliest time point

## CN(C)c1ccc(C(=O)n2c3ccccc3c3nnc(SCc4ccccc4C#N)nc32)cc1 [Compound 78]
[5]
  solubility (in words): extremely poorly soluble under the assay conditions
